Laboratory results: US20210386829A1, “COMPOSITIONS AND METHODS FOR MODULATING CGRP SIGNALING TO REGULATE INNATE LYMPHOID CELL INFLAMMATORY RESPONSES” (The Broad Institute, Inc., priority 2018, published 2021)

Tested on: lung-resident ILCs
Assay: SMART-Seq2 plate-based scRNA-seq of lung-resident ILCs from PBS-, IL-25- or IL-33-treated mice, differential gene expression by logistic regression (Tables 3, 4)
Type: in vivo, mouse
Source text: Mice and in vivo ILC activation. C57B1/6J mice were purchased from the Jackson Laboratory. Nmur1-LacZ reporter mice with a LacZ cassette knocked into the Nmur1 locus were rederived from Nmur1^tm1.1(KOMP)Vlcg sperm obtained from the trans-NIH Knock-Out Mouse Project (KOMP) Repository. NMU-deficient mice (NMU-KO) were rederived from B6.129S2-Nmu<tm1Mko> embryos from the RIKEN BioResource Center. For experiments with Nmur1-LacZ (Nmur1-KO) and NMU-KO mice, littermates that were either homozygous or heterozygous for the wild type allele were used as controls. Mice were housed under specific-pathogen-free conditions. For experiments, mice were matched for sex and age, and most mice were 6-10 weeks old. Where indicated, mice were anesthetized with Isoflurane and treated intranasally with the indicated stimuli (500 ng IL-25, 500 ng IL-33, or 20 μg Neuromedin U) daily for three consecutive days. The total administered volume was 20 μl for all conditions. Mice were randomly assigned to treatment groups after matching for sex and age. […] Mice were treated intranasally with 10 μg HDM on day 0, 7, 8, and 9, prior to sacrifice on day 10. All experiments were conducted in accordance with animal protocols approved by the Harvard Medical Area Standing Committee on Animals or BWH IACUC.
Fluorescence-activated cell sorting of innate lymphoid cells. After dissociation, single cell suspensions were incubated with CD90.2 MicroBeads (Miltenyi Biotec) on ice and enriched for CD90.2^+ cells by magnetic separation using LS columns according to the manufacturer's protocol. CD90.2^+ lung cells were then stained on ice with antibodies for sorting. ILCs were defined as 7AAD^− CD45^+ CD90.2^+ CD127^+ Lineage (CD11b, CD11c, CD19, NK1.1, […], CD4, CD8a, TCRβ, TCRγδ)^− cells and sorted on a BD FACS Aria (BD Biosciences).
For full-length scRNA-Seq, single ILCs were sorted into 96-well plates containing 5 ul TCL Buffer (QIAGEN) with 1% 2-Mercaptoethanol, centrifuged and frozen at −80° C. SMART-Seq2 protocol was carried out as previously described^23 with minor modifications in the reverse transcription step. cDNA was amplified with 22 cycles and fragmented with one-eighth of the standard Illumina NexteraXT reaction volume. Single-cell libraries were pooled and paired-end sequenced (38 bp×2) with a 75 cycle Nextseq 500 high output V2 kit.
Analysis of SMART-Seq2 plate-based scRNA-Seq data. Reads were aligned to mm10 using Kallisto (Bray, N. L., Pimentel, H., Meisted, P. & Pachter, L. Near-optimal probabilistic RNA-seq quantification. Nat Biotechnol 134, 525-527, doi:10.1038/nbt.3519 (2016)) quant, version 0.42.3. The R package tximport (Soneson, C., Love, M. I. & Robinson, M. D. Differential analyses for RNA-seq: transcript-level estimates improve gene-level inferences [version 2; referees: 2 approved]. F1000Research 4, doi:10.12688/f1000research.7563.2 (2016)), version 1.2.0, was used to convert the output to gene counts and traditional TPM values. Because of the variability in read counts per cell across plates, even from the same condition, as well as in the number of genes per cell across conditions, QC was performed for each of eight plates individually in order to remove cells that were outliers with respect to either measure. Out of 752 cells, 606 cells met QC criteria (234 from control, 152 from IL-25 treated mice, and 220 from IL-33 treated mice), and the number of genes per cell in this set ranged from 1,625 to 6,375. Genes that were not expressed with log(TPM)>2.5 in at least two cells were removed from further analysis. Subsequent analysis proceeded analogously to the droplet-based RNA-seq analysis, with parameter settings that reflected both the wider dynamic range of expression and much smaller cell numbers. The minimum ILC signature score required in ILC type assignment was 0.3. Variable genes were identified by running MeanVarPlot with x.low.cutoff=0.1, y.cutoff=1.5, and x.high.cutoff=10, resulting in a set of 519 genes. […]

Substance: IL33
- 0610031J06Rik expression coeff: 1.33
- 1700017B05Rik expression coeff: −1.5
- 1700113H08Rik expression coeff: −1.32
- 4632428N05Rik expression coeff: 1.58
- AA467197 expression coeff: 2.99
- AI593442 expression coeff: −3.15
- AI836003 expression coeff: −1.26
- AW112010 expression coeff: 0.998
- Abtb2 expression coeff: 1.34
- Acot7 expression coeff: 1.78
- Adrbk1 expression coeff: 1.08
- Adsl expression coeff: −0.98
- Ahcyl2 expression coeff: −1.24
- Amd1 expression coeff: −1.75
- Anxa2 expression coeff: 1.81
- Ap3d1 expression coeff: 0.94
- Arf5 expression coeff: 0.972
- Arhgap1 expression coeff: 1.12
- Arhgap26 expression coeff: 1.3
- Asl expression coeff: 1.31
- Asph expression coeff: −1.56
- Atp8b4 expression coeff: 1.07
- Atxn7l3b expression coeff: 0.957
- Bcl2a1d expression coeff: 0.97
- Bcl3 expression coeff: 1.42
- Bcl6 expression coeff: 1.98
- Bmp2 expression coeff: −2.03
- Brix1 expression coeff: −1.21
- C1qbp expression coeff: −1.08
- Cap1 expression coeff: 1.24
- Cblb expression coeff: 0.969
- Ccdc50 expression coeff: 0.948
- Ccdc142 expression coeff: −1.56
- Ccng1 expression coeff: 0.916
- Ccr2 expression coeff: −1.11
- Cd247 expression coeff: 1.52
- Chdh expression coeff: 1.07
- Chordc1 expression coeff: 1.09
- Chst11 expression coeff: 1.25
- Cirbp expression coeff: −1.67
- Commd10 expression coeff: −1.3
- Cox10 expression coeff: 0.894
- Cpsf7 expression coeff: 1.13
- Crlf2 expression coeff: 1.16
- Csf1 expression coeff: −1.61
- Cst7 expression coeff: 1.5
- Ctla4 expression coeff: 2.65
- Ctsw expression coeff: 1.07
- Cybrd1 expression coeff: −1.22
- Dcaf12 expression coeff: 0.975
- Ddrgk1 expression coeff: −0.935
- Ddx20 expression coeff: −1.92
- Ddx58 expression coeff: 0.912
- Dennd5a expression coeff: 0.993
- Dgka expression coeff: 1.02
- Dhx35 expression coeff: −1.51
- Dhx37 expression coeff: −0.889
- Dhx58 expression coeff: 2.39
- Dkk3 expression coeff: 0.959
- Dock10 expression coeff: −0.886
- E030030I06Rik expression coeff: −1.01
- Ecm1 expression coeff: 1.16
- Endod1 expression coeff: 1.51
- Epsti1 expression coeff: 1.72
- Eva1b expression coeff: 1.29
- Exosc4 expression coeff: −0.925
- Extl3 expression coeff: −1.19
- Fam118a expression coeff: −0.991
- Fbxl21 expression coeff: −2.6
- Ffar2 expression coeff: 1.38
- Fhl2 expression coeff: −0.933
- Fosb expression coeff: −0.948
- Foxo3 expression coeff: 1.17
- Fus expression coeff: −0.954
- Gal3st3 expression coeff: −1.08
- Gba expression coeff: 0.976
- Gbp4 expression coeff: 0.935
- Gbp6 expression coeff: 1.87
- Gbp9 expression coeff: 1.12
- Gga1 expression coeff: 1.33
- Gigyf1 expression coeff: −0.966
- Glrx expression coeff: 1.26
- Gm12250 expression coeff: 3.39
- Gnai2 expression coeff: 1.04
- Gng2 expression coeff: 1.35
- Gnl3l expression coeff: −1.25
- Gp49a expression coeff: 1.62
- Gpr108 expression coeff: 0.909
- Grn expression coeff: 1.55
- Gskip expression coeff: 1.72
- Gucd1 expression coeff: 1.09
- H2-T9 expression coeff: 1.1
- H2-T10 expression coeff: 0.906
- H2-T22 expression coeff: 1.27
- Herc6 expression coeff: 1.21
- Hpcal1 expression coeff: 1.26
- Hsph1 expression coeff: 1.26
- Idh2 expression coeff: −1.43
- Ifi35 expression coeff: 0.95
- Ifngr2 expression coeff: −0.881
- Ifrd2 expression coeff: −1.74
- Igfbp4 expression coeff: −2.3
- Igsf5 expression coeff: −1.13
- Il2rb expression coeff: 1.27
- Il5 expression coeff: 1.34
- Il13 expression coeff: 1.57
- Impact expression coeff: −1.54
- Inpp1 expression coeff: 1.29
- Inpp4b expression coeff: −0.999
- Inpp5b expression coeff: 1.22
- Irf4 expression coeff: 1.58
- Irf7 expression coeff: 1.43
- Isg15 expression coeff: 3.16
- Isg20 expression coeff: 2.26
- Itgae expression coeff: 1.21
- Kit expression coeff: −1.23
- Krit1 expression coeff: 1.04
- Lamp2 expression coeff: 0.996
- Lancl1 expression coeff: −1.58
- Lat2 expression coeff: 1.05
- Lcmt2 expression coeff: −1.12
- Lgals3bp expression coeff: 1.95
- Lgals3 expression coeff: 1.4
- Lilrb4 expression coeff: 2.11
- Lpcat2 expression coeff: −1.56
- Lsm6 expression coeff: −1.12
- Lxn expression coeff: 1.29
- Ly6a expression coeff: 1.67
- Map2k4 expression coeff: 1.64
- Marf1 expression coeff: 1.15
- Med16 expression coeff: −0.941
- Mfsd1 expression coeff: 1.05
- Mgat1 expression coeff: 1.21
- Mgat5 expression coeff: 1.08
- Mier3 expression coeff: −1.41
- Mkl2 expression coeff: −0.923
- Mlec expression coeff: 0.999
- Morc3 expression coeff: 1.05
- Mov10 expression coeff: 1.45
- Mplkip expression coeff: −1.13
- Mrp63 expression coeff: 1.21
- Mrpl40 expression coeff: −1.08
- Mrpl52 expression coeff: 0.944
- Mrpl53 expression coeff: −1.26
- Mrps18a expression coeff: −1.11
- Ms4a4b expression coeff: 2.44
- Ms4a6b expression coeff: 2.02
- Mtfmt expression coeff: −1.57
- Mxd1 expression coeff: 1.05
- Mybbp1a expression coeff: −0.978
- Myg1 expression coeff: −1.26
- Myo1f expression coeff: 1.04
- Myo1g expression coeff: 1.31
- Naa60 expression coeff: 1.11
- Nbn expression coeff: −1.39
- Ndufaf3 expression coeff: 1.52
- Neu3 expression coeff: −1.92
- Nfil3 expression coeff: 1.77
- Nipal1 expression coeff: 1.74
- Nlrc5 expression coeff: 1.3
- Nol6 expression coeff: −1.23
- Nol9 expression coeff: −1.02
- Nop56 expression coeff: −1.41
- Npc2 expression coeff: 1.53
- Npnt expression coeff: 0.949
- Nrip1 expression coeff: 1.07
- Nsmaf expression coeff: 0.914
- Oas1a expression coeff: 2.09
- Ogfr expression coeff: 1.12
- Omd expression coeff: −1.13
- Parp3 expression coeff: 1.21
- Parp10 expression coeff: 1.34
- Parp14 expression coeff: 1.21
- Paxip1 expression coeff: −0.998
- Pdcd1 expression coeff: 1.35
- Pde4b expression coeff: 1.24
- Per1 expression coeff: −1.16
- Pfas expression coeff: −1.41
- Phc3 expression coeff: 0.936
- Phf11a expression coeff: 1.98
- Phf11b expression coeff: 1.89
- Picalm expression coeff: 1
- Pigv expression coeff: −1.36
- Pin4 expression coeff: 1.28
- Plac8 expression coeff: 1.62
- Plekha5 expression coeff: −1.23
- Plxdc2 expression coeff: −0.903
- Pml expression coeff: 1.2
- Ppif expression coeff: −1.91
- Ppp1r15a expression coeff: −1.09
- Pydc4 expression coeff: 1.37
- Pyhin1 expression coeff: 1.04
- Rab7l1 expression coeff: 2.2
- Rab8b expression coeff: 1.03
- Rab33b expression coeff: −1.1
- Rdh1 expression coeff: −1.91
- Rdh13 expression coeff: −1.75
- Rilpl2 expression coeff: 1.43
- Rnf125 expression coeff: 1.06
- Rtp4 expression coeff: 2.55
- Samd9l expression coeff: 1.2
- Sbno2 expression coeff: 1.2
- Sdc4 expression coeff: −0.924
- Sdccag3 expression coeff: 1.08
- Sema4a expression coeff: −0.903
- Sema4d expression coeff: 1.28
- Sesn3 expression coeff: 1.18
- Shank2 expression coeff: −3.62
- Sipa1 expression coeff: 1.34
- Slc25a24 expression coeff: 1.33
- Slc44a2 expression coeff: 1.22
- Slfn2 expression coeff: 1.6
- Smn1 expression coeff: −1.01
- Sntb1 expression coeff: 1.19
- Soat1 expression coeff: 1.07
- Socs1 expression coeff: −1.32
- Socs2 expression coeff: −1.33
- Socs3 expression coeff: 1.44
- Sp100 expression coeff: 1.07
- Sptssa expression coeff: −0.952
- Ssr3 expression coeff: 0.999
- St3gal6 expression coeff: −1.32
- Stab1 expression coeff: 1.65
- Stat1 expression coeff: 1.23
- Syt11 expression coeff: 0.979
- Taf1d expression coeff: 1.1
- Tango6 expression coeff: −2.16
- Tap1 expression coeff: 1.17
- Tap2 expression coeff: 1.07
- Tet3 expression coeff: 1.32
- Tmem33 expression coeff: 1.08
- Tmem176a expression coeff: −1
- Tmem176b expression coeff: −1.23
- Tmem209 expression coeff: −1.27
- Tmem229b expression coeff: 1.01
- Tnfrsf18 expression coeff: −1.12
- Tnfsf10 expression coeff: −1.88
- Tpm4 expression coeff: 0.969
- Tradd expression coeff: 1.29
- Trafd1 expression coeff: 1.81
- Trim12c expression coeff: 1.16
- Trim30a expression coeff: 1.18
- Trim34a expression coeff: 1.29
- Trim30d expression coeff: 1.14
- Trip13 expression coeff: −2.7
- Trp53inp1 expression coeff: 1.16
- Ttc19 expression coeff: 1.44
- Ttc39b expression coeff: 1.16
- Ube2h expression coeff: 1.05
- Usp18 expression coeff: 1.6
- Usp36 expression coeff: −1.09
- Vdr expression coeff: 2.04
- Vmp1 expression coeff: 1.4
- Xrcc3 expression coeff: −1.02
- Zbp1 expression coeff: 2.38
- Zc3h12a expression coeff: −1.12
- Zcchc10 expression coeff: −0.914
- Zfand6 expression coeff: 1.38
- Zfc3h1 expression coeff: 1.14
- Zfp110 expression coeff: −1.24
- Zfp825 expression coeff: −1.02
